Laboratory results from patent US20250222018A1, “METHODS OF USING AVERMECTIN COMPOSITIONS FOR THE TREATMENT OF PAIN AND DOSING REGIMENS” (L4 BIO LLC, priority 2022, published 2025).

System: pentylenetetrazol (PTZ)-induced ictal brain activity
Assay: Modulation of pentylenetetrazol (PTZ)-induced seizures, BOLD fMRI in rats
Type: in vivo, male Wistar rats
Settings: for PTZ-induced brain activity, positive control compounds: Alprazolam 3 mg/kg i.p., 1 dose, no dose printed for Diazepam
Experimental: Functional MRI (fMRI) was performed using a high-field preclinical MRI system in anesthetized male Wistar rats in order to determine the modulation of pentylenetetrazol (PTZ)-induced ictal brain activity by chronic treatment with test compound (TC). […] Vehicle and 3 mg/kg Alprazolam served as controls (see, Table 11) Seizures were induced with PTZ in each experimental group. A schematic of the study design can be seen in FIG. 6. Various physiological parameters were also measured throughout the experiment including body weight, CO2 levels, blood pH, and heart rate. […] Vehicle and 3 mg/kg Alprazolam served as controls (see, Table 12).

CN1C(=O)CN=C(c2ccccc2)c2cc(Cl)ccc21 [Diazepam]
PTZ-induced brain activity, positive control compounds: effectively cancelled PTZ-induced brain activity with high statistical significance in all tested brain regions

Cc1nnc2n1-c1ccc(Cl)cc1C(c1ccccc1)=NC2 [Alprazolam]
PTZ-induced brain activity, positive control compounds: effectively cancelled PTZ-induced brain activity with high statistical significance in all tested brain regions | brain regions with statistical significance of BOLD fMRI AUC, Vehicle vs. Alprazolam (FIG. 7A, Alprazolam 3 mg/kg+PTZ, two-way ANOVA): in all
